Experiment [1] deals with MHCC97H liver cancer cell line. The experiment in a line: Cell survival assay (CCK-8), MHCC97H. The following applies: Homo sapiens, MHCC97H cells, 72 h incubation. The format is cell-based. Here is the method: (§1) Biological Example 3. Cell Survival Assay for Small Molecule Compounds
(§2) The specific procedure was carried out as follows:
(§3) 1. 600 μL of trypsin was added to a T75 cell culture flask, it was digested in a 37° C. incubator for about 1 min, then 5 mL of DMEM complete medium was added, which was blowed evenly, transferred to a 15 mL centrifuge tube, and centrifuged at 1000 rpm for 4 min;
(§4) 2. The supernatant was discarded, 5 mL of DMEM complete medium was added, which was blowed evenly, and then mixed with 10 μL of cell suspension and 10 μL of 0.4% trypan blue, and reading was recorded using a cell counter;
(§5) 3. Cells of […] different cell lines (MHCC97H, HuH7, HepG2, A549, 8505C) were seeded in 96-well plates at a cell density of 6000 cells/80 μL of complete medium/well, and cultured overnight. Only sterile water was added in the outer 36 wells of the 96-well plates, and the remaining inside 60 wells were used for cell experiments and controls;
(§6) 4. Dilution of compounds: a total of 10 concentrations of the compounds were obtained using a 3-fold dilution from the starting concentration of 10 mM.
(§7) 5. 20 μL of different compounds in different concentrations were added to each corresponding well, and the remaining wells were added with 20 μL of complete medium, the plate was shaked, and the concentration of DMSO in each well is 0.25%.
(§8) 6. After incubation for 72 h, 10 μL of CCK-8 reagent was added to each well, and cultured at 37° C. for 1-2 h; the OD value was read at 450 nm.
(§9) 7. Cell Viability (%)=[(As−Ab)/(Ac−Ab)]*100% • As: Experimental well (medium containing cells, CCK-8, compound) • Ac: Control well (medium containing cells, CCK-8) • Ab: Blank well (medium without cell and compound, CCK-8)
(§10) Table (3) lists the determination results of the activity of representative compounds of the present disclosure against various cancer cells, wherein MHCC97H, HuH7, and HepG2 are liver cancer cell lines, A549 is a lung cancer cell line, and 8505C is a thyroid cancer cell line.

Experiment [2] relates to HepG2 liver cancer cell line. The experiment in a line: Cell survival assay (CCK-8), HepG2. The format is cell-based. Particulars: Homo sapiens, HepG2 cells, 72 h incubation. Here is the method:
as §1, §2, §3, §4, §5, §6, §7, §8, §9, §10

For experiment [3], the system named is 8505C thyroid cancer cell line. The experiment is described as follows: Cell survival assay (CCK-8), 8505C. Format: cell-based. The following applies: Homo sapiens, 8505C cells, 72 h incubation. Here is the method: as §1, §2, §3, §4, §5, §6, §7, §8, §9, §10
Experiment [4] deals with B-RAF (Homo sapiens (Human), UniProt P15056). The experiment in a line: Test of small molecule compounds for inhibiting the activity of B-RAF kinase (ADP-Glo). On the technique in general: ADP-Glo first removes unused ATP, then detects ADP through luciferase.
Experiment [5] concerns the target VEGFR-2 kinase (Homo sapiens (Human), UniProt P35968). The experiment in a line: Test of small molecule compounds for inhibiting the activity of VEGFR-2 kinase. Format: biochemical. The following applies: class symbols A-D. The essentials:
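Kinase pre-incubated with diluted compounds for 30 min at room temperature, then substrate/ATP mix added and reaction run 60 min at room temperature in the dark […]. Signal read on a plate reader.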

Experiment [6] concerns A549 lung cancer cell line. The experiment is described as follows: Cell survival assay (CCK-8), A549. The format is cell-based. The following applies: Homo sapiens, A549 cells, 72 h incubation. The method, then:
as §1, §2, §3, §4, §5, §6, §7, §8, §9, §10

For experiment [7], the system named is HuH7 liver cancer cell line. The experiment in a line: Cell survival assay (CCK-8), HuH7. The following applies: Homo sapiens, Huh-7, HuH7 cells, 72 h incubation. Format: cell-based. The method, then:
as §1, §2, §3, §4, §5, §6, §7, §8, §9, §10

The target of experiment [8] is C-RAF (Homo sapiens (Human), UniProt P04049). The experiment is described as follows: Test of small molecule compounds for inhibiting the activity of C-RAF kinase (ADP-Glo).

Structures are written as SMILES.

Usually IC50 stands for the point on the concentration scale where inhibition reaches its midpoint. A higher IC50 goes with weaker potency.

Sequence of B-RAF (P15056 whole entry): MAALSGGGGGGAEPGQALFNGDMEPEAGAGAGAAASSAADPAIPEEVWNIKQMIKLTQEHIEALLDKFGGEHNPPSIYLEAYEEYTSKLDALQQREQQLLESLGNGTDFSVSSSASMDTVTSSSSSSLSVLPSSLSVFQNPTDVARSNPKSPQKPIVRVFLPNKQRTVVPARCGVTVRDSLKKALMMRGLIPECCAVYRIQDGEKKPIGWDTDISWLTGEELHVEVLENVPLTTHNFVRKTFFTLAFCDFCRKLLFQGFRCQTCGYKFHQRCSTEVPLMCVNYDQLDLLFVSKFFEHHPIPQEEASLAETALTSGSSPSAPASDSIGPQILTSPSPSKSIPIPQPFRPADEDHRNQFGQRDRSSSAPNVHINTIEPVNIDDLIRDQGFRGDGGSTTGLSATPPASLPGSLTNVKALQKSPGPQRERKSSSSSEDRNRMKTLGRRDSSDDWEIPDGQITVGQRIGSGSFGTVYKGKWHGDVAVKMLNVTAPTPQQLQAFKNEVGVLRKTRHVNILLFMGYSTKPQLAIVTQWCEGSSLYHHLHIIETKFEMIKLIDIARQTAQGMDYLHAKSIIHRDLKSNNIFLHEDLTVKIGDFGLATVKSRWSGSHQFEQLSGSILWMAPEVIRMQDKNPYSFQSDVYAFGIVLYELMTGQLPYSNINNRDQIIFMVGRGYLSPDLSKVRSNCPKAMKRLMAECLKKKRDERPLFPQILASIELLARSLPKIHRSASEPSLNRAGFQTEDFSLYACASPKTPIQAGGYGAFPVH
Sequence of C-RAF (P04049 whole entry): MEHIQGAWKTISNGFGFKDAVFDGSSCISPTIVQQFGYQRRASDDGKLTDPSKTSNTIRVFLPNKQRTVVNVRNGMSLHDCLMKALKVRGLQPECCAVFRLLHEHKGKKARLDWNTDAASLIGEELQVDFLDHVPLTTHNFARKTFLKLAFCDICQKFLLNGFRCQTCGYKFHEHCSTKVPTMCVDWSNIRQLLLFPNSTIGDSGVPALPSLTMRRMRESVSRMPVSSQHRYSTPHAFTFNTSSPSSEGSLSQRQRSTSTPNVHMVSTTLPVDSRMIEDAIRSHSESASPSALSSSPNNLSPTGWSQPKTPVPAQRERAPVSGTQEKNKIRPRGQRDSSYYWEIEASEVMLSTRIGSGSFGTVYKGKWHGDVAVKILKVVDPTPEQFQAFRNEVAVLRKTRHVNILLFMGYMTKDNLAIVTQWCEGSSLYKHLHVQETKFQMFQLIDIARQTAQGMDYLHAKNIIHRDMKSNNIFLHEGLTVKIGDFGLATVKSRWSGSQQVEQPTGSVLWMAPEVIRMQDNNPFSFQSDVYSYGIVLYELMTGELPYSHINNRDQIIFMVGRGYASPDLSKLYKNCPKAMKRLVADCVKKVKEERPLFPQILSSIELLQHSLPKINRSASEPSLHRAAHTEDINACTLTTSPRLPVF
Sequence of VEGFR-2 kinase (P35968 20-1356): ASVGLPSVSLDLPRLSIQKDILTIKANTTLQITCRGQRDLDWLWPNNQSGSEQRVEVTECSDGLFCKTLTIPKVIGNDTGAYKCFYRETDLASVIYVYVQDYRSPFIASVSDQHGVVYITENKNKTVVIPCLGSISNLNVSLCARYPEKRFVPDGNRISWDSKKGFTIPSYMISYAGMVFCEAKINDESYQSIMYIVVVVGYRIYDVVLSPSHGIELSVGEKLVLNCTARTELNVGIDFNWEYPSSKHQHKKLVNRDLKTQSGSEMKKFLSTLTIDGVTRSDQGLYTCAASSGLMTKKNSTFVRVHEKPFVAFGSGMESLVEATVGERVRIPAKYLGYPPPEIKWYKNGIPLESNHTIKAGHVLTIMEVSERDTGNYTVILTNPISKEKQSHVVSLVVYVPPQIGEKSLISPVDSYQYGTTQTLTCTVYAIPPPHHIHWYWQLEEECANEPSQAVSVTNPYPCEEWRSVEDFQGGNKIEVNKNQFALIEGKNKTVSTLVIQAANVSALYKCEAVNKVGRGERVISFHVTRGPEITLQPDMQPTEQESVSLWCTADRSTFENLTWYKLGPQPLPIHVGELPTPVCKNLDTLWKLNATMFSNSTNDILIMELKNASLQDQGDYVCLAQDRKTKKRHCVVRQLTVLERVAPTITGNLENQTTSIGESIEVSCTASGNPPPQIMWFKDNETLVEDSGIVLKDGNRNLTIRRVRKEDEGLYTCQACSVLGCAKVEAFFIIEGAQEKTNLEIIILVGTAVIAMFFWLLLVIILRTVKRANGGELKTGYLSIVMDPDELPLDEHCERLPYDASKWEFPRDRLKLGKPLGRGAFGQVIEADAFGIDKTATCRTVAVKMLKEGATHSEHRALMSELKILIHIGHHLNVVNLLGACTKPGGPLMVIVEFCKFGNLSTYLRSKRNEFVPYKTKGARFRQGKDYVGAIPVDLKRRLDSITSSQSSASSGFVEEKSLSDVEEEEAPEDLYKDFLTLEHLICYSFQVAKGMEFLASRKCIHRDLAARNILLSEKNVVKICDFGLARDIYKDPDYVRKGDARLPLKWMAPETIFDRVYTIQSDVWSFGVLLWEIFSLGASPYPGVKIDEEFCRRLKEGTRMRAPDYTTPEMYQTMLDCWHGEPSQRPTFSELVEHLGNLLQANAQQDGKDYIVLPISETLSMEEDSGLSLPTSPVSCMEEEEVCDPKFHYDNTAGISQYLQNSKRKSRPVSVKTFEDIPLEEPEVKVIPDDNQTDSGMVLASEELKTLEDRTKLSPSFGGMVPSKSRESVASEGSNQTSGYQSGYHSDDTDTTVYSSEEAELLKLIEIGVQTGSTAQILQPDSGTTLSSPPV

For `COCCOc1cc2ncnc(Oc3ccc(NC(=O)Nc4cc(C(F)(F)F)ccc4F)cc3)c2c2c1OCCO2` [Example 47, 1-(2-fluoro-5-(trifluoromethyl)phenyl)-3-(4-((5-(2-methoxyethoxy)-2,3-dihydro-[1,4]dioxino[2,3-f]quinazolin-10-yl)oxy)phenyl)urea], the half-maximal inhibitory concentration (IC50) in experiment [1] is 0.714 µM; in experiment [2] it was 0.123 µM; in experiment [3], 0.00535 µM; in experiment [4], […]; in experiment [5] it was less than 0.05 µM; in experiment [6], 0.194 µM. Also, the half-inhibitory concentration (IC50) in experiment [7] is 0.585 µM; in experiment [8], […].

On to `COc1cc2ncnc(Oc3ccc(NC(=O)Nc4ccc(Cl)c(C(F)(F)F)c4)c(F)c3)c2c2c1OCCO2` [Example 19, 1-(4-chloro-3-(trifluoromethyl)phenyl)-3-(2-fluoro-4-((5-methoxy-2,3-dihydro-[1,4]dioxino[2,3-f]quinazolin-10-yl)oxy)phenyl)urea], for which the IC50 in experiment [4] was less than 0.2 µM; in experiment [5], less than 0.05 µM; in experiment [8] it was less than 0.2 µM.

For `O=C(Nc1ccc(Oc2ncnc3cc(OCCCN4CCOCC4)c4c(c23)OCCO4)cc1)Nc1ccc(Cl)c(C(F)(F)F)c1` [Example 66, 1-(4-chloro-3-(trifluoromethyl)phenyl)-3-(4-((5-(3-morpholinopropoxy)-2,3-dihydro-[1,4]dioxino[2,3-f]quinazolin-10-yl)oxy)phenyl)urea], the figures for the concentration for half-maximal inhibition (IC50) in experiment [4], in experiment [5] and in experiment [8] were 0.2 to 0.5 µM, less than 0.05 µM and 0.2 to 0.5 µM, respectively.

With `COCCOc1cc2ncnc(Oc3ccc(NC(=O)Nc4ccc(F)cc4F)c(F)c3)c2c2c1OCCO2` [Example 49, 1-(2,4-difluorophenyl)-3-(2-fluoro-4-((5-(2-methoxyethoxy)-2,3-dihydro-[1,4]dioxino[2,3-f]quinazolin-10-yl)oxy)phenyl)urea], the IC50 in experiment [4] was greater than 1 µM; in experiment [5], less than 0.05 µM; in experiment [8], greater than 1 µM.

For the compound `O=C(Nc1ccc(Oc2ncnc3cc(OCCCN4CCCC4)c4c(c23)OCCO4)cc1Cl)NC1CC1` [Example 62, 1-(2-chloro-4-((5-(3-(pyrrolidin-1-yl)propoxy)-2,3-dihydro-[1,4]dioxino[2,3-f]quinazolin-10-yl)oxy)phenyl)-3-cyclopropylurea], the results for the IC50 in experiment [4], in experiment [5] and in experiment [8] were greater than 1 µM, less than 0.05 µM and greater than 1 µM, respectively.

On to `COCCOc1cc2ncnc(Nc3ccc(NC(=O)Nc4ccc(Cl)c(C(F)(F)F)c4)c(Cl)c3)c2c2c1OCCO2` [Example 42, 1-(2-chloro-4-((5-(2-methoxyethoxy)-2,3-dihydro-[1,4]dioxino[2,3-f]quinazolin-10-yl)amino)phenyl)-3-(4-chloro-3-(trifluoromethyl)phenyl)urea], for which the values for the half-inhibitory concentration (IC50) in experiment [4], in experiment [5] and in experiment [8] were less than 0.2 µM, less than 0.05 µM and 0.5 to 1 µM, respectively.

Take `O=C(Nc1ccc(Oc2ncnc3cc(OCCCN4CCOCC4)c4c(c23)OCCO4)c(F)c1)Nc1ccc(Cl)c(C(F)(F)F)c1` [Example 68, 1-(4-chloro-3-(trifluoromethyl)phenyl)-3-(3-fluoro-4-((5-(3-morpholinopropoxy)-2,3-dihydro-[1,4]dioxino[2,3-f]quinazolin-10-yl)oxy)phenyl)urea]: the IC50 was 0.2 to 0.5 µM in experiment [4], less than 0.05 µM in experiment [5] and 0.5 to 1 µM in experiment [8].

`COc1cc2ncnc(Oc3ccc(NC(=O)Nc4cc(C(F)(F)F)ccc4F)cc3)c2c2c1OCCO2` [Example 20, 1-(2-fluoro-5-(trifluoromethyl)phenyl)-3-(4-((5-methoxy-2,3-dihydro-[1,4]dioxino[2,3-f]quinazolin-10-yl)oxy)phenyl)urea]: the half-inhibitory concentration (IC50) in experiment [1] is 1.72 µM; in experiment [2], 0.302 µM; in experiment [3], 0.0203 µM; in experiment [4] it was […]; in experiment [5], less than 0.05 µM; in experiment [6] it was 1.12 µM. The results for the IC50 in experiment [7] and in experiment [8] were 0.856 µM and […], respectively.

As for `O=C(Nc1ccc(Oc2ncnc3cc(OCCCN4CCOCC4)c4c(c23)OCCO4)c(F)c1)Nc1cc(C(F)(F)F)ccc1F` [Example 67, 1-(3-fluoro-4-((5-(3-morpholinopropoxy)-2,3-dihydro-[1,4]dioxino[2,3-f]quinazolin-10-yl)oxy)phenyl)-3-(2-fluoro-5-(trifluoromethyl)phenyl)urea], the half-maximal inhibitory concentration (IC50) is 0.2 to 0.5 µM in experiment [4], less than 0.05 µM in experiment [5] and 0.5 to 1 µM in experiment [8].

For the compound `COc1cc2ncnc(Oc3ccc(NC(=O)Nc4ccc(Cl)c(C(F)(F)F)c4)cc3)c2c2c1OCCO2` [Example 18, 1-(4-chloro-3-(trifluoromethyl)phenyl)-3-(4-((5-methoxy-2,3-dihydro-[1,4]dioxino[2,3-f]quinazolin-10-yl)oxy)phenyl)urea], the IC50 was greater than 2.5 µM in experiment [1]; 1.74 µM in experiment [2]; 0.0232 µM in experiment [3]; 0.2 to 0.5 µM in experiment [4]; less than 0.05 µM in experiment [5]; 1.04 µM in experiment [6]. Besides, the figures for the IC50 in experiment [7] and in experiment [8] were 1.33 µM and 0.2 to 0.5 µM, respectively.

As to `O=C(Nc1ccc(Oc2ncnc3cc(OCCCN4CCOCC4)c4c(c23)OCCO4)cc1Cl)NC1CC1` [Example 64], the results for the IC50 in experiment [4], in experiment [5] and in experiment [8] were greater than 1 µM, less than 0.05 µM and greater than 1 µM, respectively.

As for `COCCOc1cc2ncnc(Oc3ccc(NC(=O)Nc4ccc(Cl)c(C(F)(F)F)c4)cc3)c2c2c1OCCO2` [Example 46, 1-(4-chloro-3-(trifluoromethyl)phenyl)-3-(4-((5-(2-methoxyethoxy)-2,3-dihydro-[1,4]dioxino[2,3-f]quinazolin-10-yl)oxy)phenyl)urea], the IC50 in experiment [1] is greater than 2.5 µM; in experiment [2] it was 2.37 µM; in experiment [3], 0.00857 µM; in experiment [4], 0.5 to 1 µM; in experiment [5], less than 0.05 µM; in experiment [6], 0.428 µM. In addition, the IC50 was 1.26 µM in experiment [7] and 0.5 to 1 µM in experiment [8].

Regarding `COCCOc1cc2ncnc(Oc3ccc(NC(=O)NC4CC4)c(Cl)c3)c2c2c1OCCO2` [Example 45, 1-(2-chloro-4-((5-(2-methoxyethoxy)-2,3-dihydro-[1,4]dioxino[2,3-f]quinazolin-10-yl)oxy)phenyl)-3-cyclopropylurea], the IC50 is greater than 1 µM in experiment [4], less than 0.05 µM in experiment [5] and greater than 1 µM in experiment [8].

In the case of `COCCOc1cc2ncnc(Oc3ccc(NC(=O)Nc4cccc(OC)c4)cc3)c2c2c1OCCO2` [Example 50, 1-(4-((5-(2-methoxyethoxy)-2,3-dihydro-[1,4]dioxino[2,3-f]quinazolin-10-yl)oxy)phenyl)-3-(3-methoxyphenyl)urea], the results for the 50% inhibitory concentration (IC50) in experiment [4], in experiment [5] and in experiment [8] were greater than 1 µM, less than 0.05 µM and greater than 1 µM, respectively.

As for `O=C(Nc1ccc(Oc2ncnc3cc(OCCCN4CCOCC4)c4c(c23)OCCO4)cc1)Nc1cc(C(F)(F)F)ccc1F` [Example 65, 1-(2-fluoro-5-(trifluoromethyl)phenyl)-3-(4-((5-(3-morpholinopropoxy)-2,3-dihydro-[1,4]dioxino[2,3-f]quinazolin-10-yl)oxy)phenyl)urea], the IC50 is […] in experiment [4], less than 0.05 µM in experiment [5] and […] in experiment [8].

For the compound `COCCOc1cc2ncnc(Oc3ccc(NC(=O)Nc4ccc(Cl)c(C(F)(F)F)c4)c(F)c3)c2c2c1OCCO2` [Example 48, 1-(4-chloro-3-(trifluoromethyl)phenyl)-3-(2-fluoro-4-((5-(2-methoxyethoxy)-2,3-dihydro-[1,4]dioxino[2,3-f]quinazolin-10-yl)oxy)phenyl)urea], the concentration for half-maximal inhibition (IC50) in experiment [1] was 1.23 µM; in experiment [2] it was 0.926 µM; in experiment [3], 0.0219 µM; in experiment [4], less than 0.2 µM; in experiment [5] it was less than 0.05 µM; in experiment [6], 0.59 µM. Moreover, the IC50 in experiment [7] was 1.27 µM; in experiment [8], 0.2 to 0.5 µM.

Consider `COc1cc2ncnc(Nc3ccc(NC(=O)Nc4ccc(Cl)c(C(F)(F)F)c4)c(Cl)c3)c2c2c1OCCO2` [Example 11, 1-(2-chloro-4-((5-methoxy-2,3-dihydro-[1,4]dioxino[2,3-f]quinazolin-10-yl)amino)phenyl)-3-(4-chloro-3-(trifluoromethyl)phenyl)urea], for which the half-inhibitory concentration (IC50) in experiment [4] is […]; in experiment [5], less than 0.05 µM; in experiment [8], […].

These data come from patent publication US10980809B2, “Urea-substituted aromatic ring-linked dioxane-quinazoline and -linked dioxane-quinoline compounds, preparation method therefor and use thereof” (BEIJING SCITECH-MQ PHARMACEUTICALS LIMITED, priority 2017, dated 2021).
